In patent publication US7674787B2, “Conformationally constrained Smac mimetics and the uses thereof” (The Regents of the University of Michigan, priority 2004, dated 2010):
Where two headings read alike, the source gives them in different places. Where a SMILES comes first, the peptide text is derived from it. [ ]: non-standard residue; d: D form. The star is where a group is joined. 6FAM = O=C1OC2(c3ccc(O)cc3Oc3cc(O)ccc32)c2cc(C(=O)*)ccc21; Abu = CC[C@H](N)C(=O)O

How the values were obtained:
MDA-231 cells = assay: Apoptosis by Annexin V-FITC/propidium iodide in MDA-231 cells; type: cell-based, human; conditions: for cells undergoing apoptosis as compared to control cells: 42 hours
Experimental: Similar experiments were performed using the breast cancer cell line MDA-231. MDA-231 cells in 6-well plates were treated with SH-102 and CDDP, alone or in combination, for 42 hours. Cells were collected and stained with Annexin V-FITC and propidium iodide. The fluorescence of Annexin V-FITC and propidium iodide of individual cells was analyzed by flow cytometry. 25 μM and 50 μM CDDP induced about 25% and 42% of MDA-231 cells to undergo apoptosis as compared to control cells, respectively (FIG. 22). […] Combination of 25 and 50 μM CDDP and 10 μM SH-102 induced about 35% and 75% apoptosis over control cells, respectively (FIG. 22).

PC-3 cells = assay: Apoptosis by Annexin V-FITC staining in PC-3 cells; type: cell-based, human; conditions: for cells undergoing apoptosis as compared to control cells: 42 hours; for potentiation of CDDP activity in inducing apoptosis: PC-3 cells or MDA-231 cells
From the text: SH-97, a peptido-mimetic in which the side chain of alanine has been replaced with an ethyl group and the isoleucine has been replaced with a diphenylmethyl group, was used to test the basic premise. Of note, SH-97 still has two natural amino acids (valine and proline) and one natural peptide bond. […] The experiment used PC-3 cells which express high levels of XIAP and cIAP-1/2 proteins and cisplatin (CDDP) as the chemotherapeutic drug. CDDP is a DNA damaging agent and can effectively induce apoptosis in PC-3 cells and is also a clinically used chemotherapeutic drug for prostate cancer.
PC-3 cells were treated with CDDP, Smac peptides and mimetics alone or in combination for 42 hours and apoptosis was analyzed by Annexin V-FITC staining. […] Combination of 25 μM CDDP and 10 μM or 25 μM SH-97 induced 29.3%±1.9% and 35.8%±0.4% apoptosis over control cells, respectively (FIG. 18A).
Similar experiments were performed with SH-102 (Table 5). PC-3 cells in 6-well plates were treated with SH-102 and CDDP, alone or in combination, for 42 hours. Cells were collected and stained with Annexin V-FITC and propidium iodide. The fluorescence of Annexin V-FITC and propidium iodide of individual cells was analyzed by flow cytometry. […] Combination of 25 μM CDDP and 10 μM SH-102 induced 32% apoptosis over control cells (FIG. 19).
The same experiment was performed using TAXOTERE (docetaxel), another cancer chemotherapeutic drug. PC-3 cells in 6-well plates were treated with SH-102 and TAXOTERE, alone or in combination, for 42 hours. Cells were collected and stained with Annexin V-FITC and propidium iodide. The fluorescence of Annexin V-FITC and propidium iodide of individual cells was analyzed by flow cytometry. […] Combination of 10 μM TAXOTERE and 10 μM SH-102 induced about 18% apoptosis over control cells (FIG. 21).

XIAP BIR3 = XIAP BIR3 (Homo sapiens, UniProt P98170); assay: biochemical
XIAP BIR3, sequence (P98170 241-356): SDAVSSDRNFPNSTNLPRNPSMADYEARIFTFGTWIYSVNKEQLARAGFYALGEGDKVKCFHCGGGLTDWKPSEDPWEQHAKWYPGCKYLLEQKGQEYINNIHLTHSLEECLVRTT

[1] = tested on: BT-549, MDA-MB-231 (subclone 2LMP), MDA-MB-231 (ATCC) and PC-3 cells; assay: Cell growth inhibition, WST-8, cancer cell lines; type: cell-based, human; conditions: 5 days, WST-8; each of the cancer cell lines
Experimental: To test the effect of [6.3.0] Smac mimetics in inhibition of cell growth in human cancer cells, compounds were administered to several different cancer cell lines. BT-549, MDA-MB-231 (subclone 2LMP), and MDA-MB-231 (ATCC) human breast cancer cells and PC-3 human prostate cancer cells were seeded in 96-well plates with increasing concentrations of the compounds. To assay for the selectivity of the compounds for cancer cells, normal prostate epithelial cells were also tested. The cells were then incubated at 37° C. with 5% CO2 for 5 days, followed by detection of cell viability with WST-8. Untreated cells were used as 100% growth. The compounds tested were SH-109, SH-122 and SH-123 (Table 6).

[2] = target: T1, human XIAP-BIR3 protein (residues 241-356) (Homo sapiens, UniProt P98170); assay: Fluorescence polarization saturation binding of labeled Smac peptides
T1 construct: The human XIAP-BIR3 protein (residues 241-356) with a His tag
T1 sequence (P98170 241-356): as above
From the text: A quantitative in vitro binding assay using fluorescence polarization was developed.

[3] = tested on: MDA-435, MDA-468, and T47D cells; assay: Cell growth inhibition, WST-8, breast cancer cell lines; type: cell-based, human; conditions: 5 days, all three cell lines
Experimental: To test the effect of Smac mimetics by themselves in inhibition of cell growth in human cancer cells, SH-102 was administered to three different breast cancer cell lines. MDA-435, MDA-468, and T47D cells were seeded in 96-well plates with increasing concentrations of SH-102, Smac8, or Smac8-C. The cells were then incubated at 37° C. with 5% CO2 for 5 days, followed by detection of cell viability with WST-8 (10% Dojindo solution in IMEM with 10% FCS). OD values at 450 nm with reference at 650 nm were read approximately 3 hours later. Untreated cells were used as 100% growth. […]. […] (FIGS. 26A-26C).

| Compound | Ki (XIAP BIR3) [µM] | other results |
| --- | --- | --- |
| [NH2][Pt]([NH2])([Cl])[Cl] [CDDP, cisplatin, reference compound] | – | cells undergoing apoptosis as compared to control cells (MDA-231 cells; 25 μM CDDP alone): about 25%; cells undergoing apoptosis as compared to control cells (MDA-231 cells; 50 μM CDDP alone): ~42%; cells undergoing apoptosis as compared to control cells (PC-3 cells; 50 μM CDDP alone): ~25% |
| CC(C)C(NC(=O)[C@H](C)N)C(=O)C1CCC[C@H]1C(=O)NCc1ccccc1 (stereo partly drawn) [Compound 1] | 0.29 ± 0.06 | – |
| CC[C@H](N)C(=O)N[C@H]1CCC[C@H]2CC[C@@H](C(=O)NCc3ccccc3)N2C1=O [Compound 33] | 0.06 | Ki (XIAP BIR3; Ki): 0.06 µM; Ki (XIAP BIR3; Ki (μM), Table 4, [5.3.0] bicyclic lactam system): 0.06 ± 0.015 µM |
| C[C@H](N)C(=O)N[C@H]1CC[C@H]2CC[C@@H](C(=O)Nc3ccccc3)N2C1=O [SH-69] | > 200 | – |
| C[C@H](N)C(=O)N[C@H]1CC[C@H]2CC[C@@H](C(=O)N[C@@H](C)c3ccccc3)N2C1=O [SH-71] | > 200 | – |
| C[C@H](N)C(=O)N[C@H]1CC[C@H]2CC[C@@H](C(=O)N[C@H](C)c3ccccc3)N2C1=O [SH-72] | 8.88 | – |
| C[C@H](N)C(=O)N[C@H]1CC[C@H]2CC[C@@H](C(=O)NCc3ccccc3Br)N2C1=O [SH-73] | 26.3 | – |
| C[C@H](N)C(=O)N[C@H]1CC[C@H]2CC[C@@H](C(=O)NCc3cccc(Br)c3)N2C1=O [SH-74] | 9.62 | – |
| C[C@H](N)C(=O)N[C@H]1CC[C@H]2CC[C@@H](C(=O)NCc3ccc(Br)cc3)N2C1=O [SH-75] | 19.6 | – |
| Cc1cccc(CNC(=O)[C@@H]2CC[C@@H]3CC[C@H](NC(=O)[C@H](C)N)C(=O)N32)c1 [SH-77] | 44.4 | – |
| C[C@H](N)C(=O)N[C@H]1CC[C@H]2CC[C@@H](C(=O)NCc3cccc(Cl)c3)N2C1=O [SH-78] | 12.2 | – |
| C[C@H](N)C(=O)N[C@H]1CC[C@H]2CC[C@@H](C(=O)NCCc3c[nH]c4ccccc34)N2C1=O [SH-79] | > 200 | – |
| C[C@H](N)C(=O)N[C@H]1CC[C@H]2CC[C@@H](C(=O)NCc3ccoc3)N2C1=O [SH-84] | 9.98 | – |
| C[C@H](N)C(=O)N[C@H]1CC[C@H]2CC[C@@H](C(=O)NCc3ccsc3)N2C1=O [SH-85] | 6.28 | – |
| C[C@H](N)C(=O)N[C@H]1CC[C@H]2CC[C@@H](C(=O)N[C@H](Cc3ccccc3)C(N)=O)N2C1=O [SH-92] | 9.98 | – |
| CCC[C@H](N)C(=O)N[C@H]1CC[C@H]2CC[C@@H](C(=O)NCc3ccccc3)N2C1=O [SH-93] | – | effect of combination with CDDP on apoptosis (MDA-231 cells; 25 and 50 μM CDDP + 25 μM SH-93, 42 hours): no significant effect; Ki (XIAP BIR3; Ki (μM), Table 5): > 100 µM; potentiation of CDDP activity in inducing apoptosis (PC-3 cells): unable to potentiate the activity of CDDP |
| CC[C@H](N)C(=O)N[C@H]1CC[C@H]2CC[C@@H](C(=O)N[C@@H](Cc3ccccc3)c3ccccc3)N2C1=O [SH-100] | 8.51 | – |

| Compound | Ki (XIAP BIR3) [µM] | other results |
| --- | --- | --- |
| C[C@H](N)C(=O)N[C@H]1CCC[C@H]2CC[C@@H](C(=O)NC(c3ccccc3)c3ccccc3)N2C1=O [SH-104] | 0.059 | – |
| C[C@H](N)C(=O)N[C@H]1CCC[C@H]2CC[C@@H](COC(c3ccccc3)c3ccccc3)N2C1=O [SH-106] | 2.01 | – |
| CC[C@H](N)CC[C@H]1CCC[C@H]2CC[C@@H](C(=O)NC(c3ccccc3)c3ccccc3)N2C1=O [SH-107] | > 40 | – |
| CC[C@H](N)C(=O)N[C@H]1CCCC[C@H]2CC[C@@H](C(=O)NC(c3ccccc3)c3ccccc3)N2C1=O [SH-109] | 0.028 | cell growth inhibition (in words) [1]: inhibited the cell growth |
| CC[C@H](N)C(=O)N[C@H]1CCCC[C@H]2CC[C@@H](C(=O)N[C@H](c3ccccc3)c3ccccc3C)N2C1=O [SH-113] | 0.14 | – |
| CC[C@H](N)C(=O)N[C@H]1CCCC[C@H]2CC[C@@H](C(=O)N[C@H](c3ccccc3)c3cccc(C)c3)N2C1=O [SH-114] | 0.027 | – |
| CC[C@H](N)C(=O)N[C@H]1CCCC[C@H]2CC[C@@H](C(=O)N[C@H](c3ccccc3)c3ccc(C)cc3)N2C1=O [SH-115] | 0.092 | – |
| CC[C@H](N)C(=O)N[C@H]1CCCC[C@H]2CC[C@@H](C(=O)N[C@@H](c3ccccc3)c3ccccc3C)N2C1=O [SH-116] | 0.019 | – |
| CC[C@H](N)C(=O)N[C@H]1CCCC[C@H]2CC[C@@H](C(=O)N[C@@H](c3ccccc3)c3cccc(C)c3)N2C1=O [SH-117] | 0.012 | – |
| CC[C@H](N)C(=O)N[C@H]1CCCC[C@H]2CC[C@@H](C(=O)N[C@@H](c3ccccc3)c3ccc(C)cc3)N2C1=O [SH-118] | 0.016 | – |
| CC[C@H](N)C(=O)N[C@H]1CCCC[C@H]2CC[C@@H](C(=O)N[C@H](c3ccccc3)c3ccc4ccccc4c3)N2C1=O [SH-119] | 0.12 | – |
| CC[C@H](N)C(=O)N[C@H]1CCCC[C@H]2CC[C@@H](C(=O)N[C@@H](c3ccccc3)c3ccc4ccccc4c3)N2C1=O [SH-120] | 0.023 | – |
| C[C@H](O)C(=O)N[C@H]1CCCC[C@H]2CC[C@@H](C(=O)NC(c3ccccc3)c3ccccc3)N2C1=O [SH-123] | > 10 | cell growth inhibition (in words) [1]: inhibited the cell growth |
| CC[C@@H](C(=O)N[C@H]1CCCC[C@H]2CC[C@@H](C(=O)NC(c3ccccc3)c3ccccc3)N2C1=O)N(C)C [SH-125] | 0.03 | – |
| CC[C@H](N)C(=O)N[C@@H](CCCNC(=N)N)C(=O)N1CCC[C@H]1C(=O)N[C@@H](Cc1ccccc1)C(=O)N[C@@H](CCCCNC(=O)c1ccc2c(c1)C1(OC2=O)c2ccc(O)cc2Oc2cc(O)ccc21)C(=O)O [SM5F, AbuRPFK-FAM] (H-[Abu]RPFK(6FAM)-OH; N-terminus and C-terminus assumed) | – | ratio of the Kd values between labeled SM5F and S9F ([2]; SM5F versus S9F): 7.2 fold; binding affinity higher than natural Smac peptide S9F ([2]; relative to S9F): about 10 times |
| CC(=O)O[C@@]12CO[C@@H]1C[C@H](O)[C@@]1(C)C(=O)[C@H](O)C3=C(C)[C@@H](OC(=O)[C@H](O)[C@@H](NC(=O)OC(C)(C)C)c4ccccc4)C[C@@](O)([C@@H](OC(=O)c4ccccc4)[C@H]21)C3(C)C [TAXOTERE, docetaxel, reference compound] | – | cells undergoing apoptosis as compared to control cells (PC-3 cells; 10 μM TAXOTERE alone): about 5%; cells undergoing apoptosis as compared to control cells (PC-3 cells; 20 μM TAXOTERE alone): ~8% |
| AVPIAQKS [Smac-8, Smac peptide without a carrier peptide, negative control, reference compound] | – | cell growth inhibition (in words) [3]: essentially ineffective; potentiation of CDDP activity in inducing apoptosis (PC-3 cells): unable to potentiate the activity of CDDP |
